Source: US20150315130A1, “New positive allosteric modulators of nicotinic acetylcholine receptor” (H. LUNDBECK A/S, priority 2012, published 2015)

Biological target: T1, human α7 receptor (Homo sapiens, UniProt P36544)
T1 construct: host or cells: rat GH4C1 cell line
Experiment: α7 NNR flux assay (FDSS calcium flux, Calcium-4 dye, PAM mode with acetylcholine)
Type: cell-based
Conditions: human α7 receptor stably expressed in rat GH4C1 cells; enhancement of response to 20 μM acetylcholine; % modulation relative to PNU-120596 set to 100%
Protocol: The nicotinic acetylcholine receptor α7 is a calcium-permeable ion channel, whose activity can be measured by over expression in mammalian cells or oocytes. These two individual assays are described in Example 2 and 3, respectively.
In this version of the assay, the human α7 receptor is stably expressed in the rat GH4C1 cell line. The assay was used to identify positive allosteric modulators (PAMs) of the α7 receptor. Activation of the channel was measured by loading cells with the calcium-sensitive fluorescent dye Calcium-4 (Assay kit from Molecular Devices), and then measuring real-time changes in fluorescence upon treatment with test compounds.
The cell line ChanClone GH4C1-nAChRalphα7 from Genionics was seeded from frozen stock in 384-well plates in culture media 2-3 days before experiment to form an approximately 80% confluent layer on the day of experiment.
The cell culture was split into “22.5 cm×22.5 cm”-plates with approximately 100×10^3 cells/cm^2. After four days incubation in a humidified incubator at 37° C. and 5% CO2, it had grown to an 80-90% confluent layer, and the cells were harvested.
Two or three days before the experiment the cells were seeded in 384 well plates from Greiner bio-one (781946, CELLCOAT, Poly-D-Lysine, black, μClear).
The media was poured off and the plate washed with PBS and left to drain. 5 mL Trypsin was added, cells were washed and incubated (at room temperature) for about 10 seconds. Trypsin was poured of quickly and the cells were incubated for 2 minutes at 37° C. (if the cells were not already detached). Cells were resuspended in 10 mL culture media and transferred to 50 mL tubes.
The cell suspension was counted (NucleoCounter, total cell count) from the first plates to estimate the total cell number of the whole batch.
The cells were seeded in 384 well plates with 30 μL/well (30000 cells/well) while stirring the cell suspension or otherwise preventing the cells from precipitating.
The plates were incubated at room temperature for 30-45 minutes.
The plates were placed in incubator for two days (37° C. and 5% CO2).
The loading buffer was 5% v/v Calcium-4 Kit and 2.5 mM Probenecid in assay buffer.
Culture media were removed from the cell plates and 20 μL loading buffer was added in each well. The cell plates were placed in trays and incubated 90 minutes in the incubator (37° C.). Thereafter the plates were incubated 30 minutes at room temperature, still protected from light.
Now the cell plates were ready to run in the Functional Drug Screening System (FDSS).
The assay buffer was HBSS with 20 mM HEPES, pH 7.4 and 3 mM CaCl2.
200 nL 10 mM compound solution in DMSO was diluted in 50 μL assay buffer. The final test concentrations in the cell plates were 20-10-5-2.5-1.25-0.625-0.312-0.156-0.078-0.039 μM. Assay buffer and 3 μM PNU-120596 were used for control.
The agonist acetylcholine was added to a final concentration of 20 μM (˜E0100). In the FDSS7000 the Ex480-Em540 was measured with 1 second intervals. The baseline was made of 5 frames before addition of test compounds, and 95 frames more were made before addition of acetylcholine. The measurement stopped 30 frames after the 2nd addition. Raw data for each well were collected as “the maximum fluorescence count” in the interval 100-131 seconds and as “the average fluorescence count” in the interval 96-100 seconds. The positive allosteric modulation in the 2nd addition was the enhancement of agonist response with test compound compared to agonist alone.
Results were calculated as % modulation of test compound compared to the reference PNU-120596 set to 100%.

T1 sequence (P36544 23-502): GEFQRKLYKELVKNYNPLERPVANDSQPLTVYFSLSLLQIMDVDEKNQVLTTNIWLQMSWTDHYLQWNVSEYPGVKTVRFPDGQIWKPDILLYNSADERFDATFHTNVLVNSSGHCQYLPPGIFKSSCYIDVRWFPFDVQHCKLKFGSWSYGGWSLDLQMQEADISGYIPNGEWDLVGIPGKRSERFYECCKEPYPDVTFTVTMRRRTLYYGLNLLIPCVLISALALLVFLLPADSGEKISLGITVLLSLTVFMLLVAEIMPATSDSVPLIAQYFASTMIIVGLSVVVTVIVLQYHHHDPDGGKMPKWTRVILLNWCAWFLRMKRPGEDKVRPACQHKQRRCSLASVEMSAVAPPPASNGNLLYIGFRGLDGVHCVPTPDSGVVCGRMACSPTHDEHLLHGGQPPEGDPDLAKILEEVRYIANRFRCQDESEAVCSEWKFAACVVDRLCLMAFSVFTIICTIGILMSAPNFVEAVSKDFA

SMILES	EC50 [nM]
COc1ccc([C@H](C)NC(=O)[C@H]2C[C@@H]2c2ccccc2)cc1 [Compound 1, (1S,2S)-2-Phenyl-cyclopropanecarboxylic acid [(S)-1-(4-methoxy-phenyl)ethyl]-amide]	1500
O=C(N[C@@H](CCO)c1ccccc1)[C@H]1C[C@@H]1c1ccccc1 [Compound 2, (1S,2S)-2-Phenyl-cyclopropanecarboxylic acid ((S)-3-hydroxy-1-phenyl-propyl)-amide]	4900
C[C@H](NC(=O)[C@H]1C[C@@H]1c1ccccc1)c1ccc(F)cc1 [Compound 3, (1S,2S)-2-Phenyl-cyclopropanecarboxylic acid [(S)-1-(4-fluoro-phenyl)-ethyl]-amide]	2400
Cc1ccc([C@H](C)NC(=O)[C@H]2C[C@@H]2c2ccccc2)cc1 [Compound 5, (1S,2S)-2-Phenyl-cyclopropanecarboxylic acid ((S)-1-p-tolyl-ethyl)-amide]	3800
C[C@H](NC(=O)[C@H]1C[C@@H]1c1ccccc1)c1cccc(F)c1 [Compound 6, (1S,2S)-2-Phenyl-cyclopropanecarboxylic acid [(S)-1-(3-fluoro-phenyl)-ethyl]-amide]	3100
O=C(N[C@@H](CO)c1ccc(OC(F)(F)F)cc1)[C@H]1C[C@@H]1c1ccccc1 [Compound 7, (1S,2S)-2-Phenyl-cyclopropanecarboxylic acid [(R)-2-hydroxy-1-(4-trifluoromethoxy-phenyl)-ethyl]-amide]	3600
COc1cccc([C@H](C)NC(=O)[C@H]2C[C@@H]2c2ccccc2)c1 [Compound 11, (1S,2S)-2-Phenyl-cyclopropanecarboxylic acid [(S)-1-(3-methoxy-phenyl)ethyl]-amide]	3000
C[C@H](NC(=O)[C@H]1C[C@@H]1c1ccccc1)c1ccccc1F [Compound 12, (1S,2S)-2-Phenyl-cyclopropanecarboxylic acid [(S)-1-(2-fluoro-phenyl)-ethyl]-amide]	1900
CCOc1ccc([C@H](COC)NC(=O)[C@H]2C[C@@H]2c2ccccc2)cc1 [Compound 17, (1S,2S)-2-Phenyl-cyclopropanecarboxylic acid [(R)-1-(4-ethoxy-phenyl)-2-methoxy-ethyl]-amide]	33
O=C(N[C@@H](CO)c1ccc(O)cc1)[C@H]1C[C@@H]1c1ccccc1 [Compound 18, (1S,2S)-2-Phenyl-cyclopropanecarboxylic acid [(R)-2-hydroxy-1-(4-hydroxy-phenyl)-ethyl]-amide]	3900
COC[C@H](NC(=O)[C@H]1C[C@@H]1c1ccccc1)c1ccc(O)cc1 [Compound 19, (1S,2S)-2-Phenyl-cyclopropanecarboxylic acid [(R)-1-(4-hydroxy-phenyl)-2-methoxy-ethyl]-amide]	3600
O=C(N[C@@H](CO)c1ccc(O)cc1)[C@H]1C[C@@H]1c1ccc(F)cc1 [Compound 22, (1S,2S)-2-(4-Fluoro-phenyl)-cyclopropanecarboxylic acid [(R)-2-hydroxy-1-(4-hydroxy-phenyl)-ethyl]-amide]	3200

Next, values leading:

EC50 [nM]	SMILES
1200	COc1ccc([C@H](CO)NC(=O)[C@H]2C[C@@H]2c2cccc(F)c2)cc1 [Compound 4, (1S,2S)-2-(3-Fluoro-phenyl)-cyclopropanecarboxylic acid [(R)-2-hydroxy-1-(4-methoxy-phenyl)-ethyl]-amide]
270	CCOc1ccc([C@H](CO)NC(=O)[C@H]2C[C@@H]2c2ccccc2)cc1 [Compound 8, (1S,2S)-2-Phenyl-cyclopropanecarboxylic acid [(R)-1-(4-ethoxy-phenyl)-2-hydroxy-ethyl]-amide]
610	COc1ccc([C@H](CO)NC(=O)[C@H]2C[C@@H]2c2ccccc2)c(F)c1 [Compound 9, (1S,2S)-2-Phenyl-cyclopropanecarboxylic acid [(R)-1-(2-fluoro-4-methoxy-phenyl)-2-hydroxy-ethyl]-amide]
645	COc1ccc([C@H](CO)NC(=O)[C@H]2C[C@@H]2c2ccccc2)cc1 [Compound 10, (1S,2S)-2-Phenyl-cyclopropanecarboxylic acid [(R)-2-hydroxy-1-(4-methoxy-phenyl)-ethyl]-amide]
510	COc1ccc([C@H](CO)NC(=O)[C@H]2C[C@@H]2c2ccc(F)cc2)cc1 [Compound 13, (1S,2S)-2-(4-Fluoro-phenyl)-cyclopropanecarboxylic acid [(R)-2-hydroxy-1-(4-methoxy-phenyl)-ethyl]-amide]
400	COc1ccc([C@H](CO)NC(=O)[C@H]2C[C@@H]2c2cccc(F)c2)cc1 [Compound 14, (1S,2S)-2-(3-Fluoro-phenyl)-cyclopropanecarboxylic acid [(R)-2-hydroxy-1-(4-methoxy-phenyl)-ethyl]-amide]
1200	COc1ccc([C@H](CO)NC(=O)[C@H]2C[C@@H]2c2ccccc2F)cc1 [Compound 15, (1S,2S)-2-(2-Fluoro-phenyl)-cyclopropanecarboxylic acid [(R)-2-hydroxy-1-(4-methoxy-phenyl)-ethyl]-amide]
160	COC[C@H](NC(=O)[C@H]1C[C@@H]1c1ccccc1)c1ccc(OC)cc1 [Compound 16, (1S,2S)-2-Phenyl-cyclopropanecarboxylic acid [(R)-2-methoxy-1-(4-methoxy-phenyl)-ethyl]-amide]
84	COC[C@H](NC(=O)[C@H]1C[C@@H]1c1ccc(F)cc1)c1ccc(OC)cc1 [Compound 20, (1S,2S)-2-(4-Fluoro-phenyl)-cyclopropanecarboxylic acid [(R)-2-methoxy-1-(4-methoxy-phenyl)-ethyl]-amide]
1100	COC[C@H](NC(=O)[C@H]1C[C@@H]1c1cccc(F)c1)c1ccc(OC)cc1 [Compound 21, (1S,2S)-2-(3-Fluoro-phenyl)-cyclopropanecarboxylic acid [(R)-2-methoxy-1-(4-methoxy-phenyl)-ethyl]-amide]
3800	O=C(N[C@@H](CO)c1ccc(O)cc1)[C@H]1C[C@@H]1c1cccc(F)c1 [Compound 23, (1S,2S)-2-(3-Fluoro-phenyl)-cyclopropanecarboxylic acid [(R)-2-hydroxy-1-(4-hydroxy-phenyl)-ethyl]-amide]
1500	O=C(N[C@@H](CO)c1ccc(OCCF)cc1)[C@H]1C[C@@H]1c1ccccc1 [Compound 24, (1S,2S)-2-Phenyl-cyclopropanecarboxylic acid {(R)-1-[4-(2-fluoro-ethoxy)phenyl]-2-hydroxy-ethyl}-amide]
140	O=C(N[C@@H](CO)c1ccc(OCCF)cc1)[C@H]1C[C@@H]1c1ccc(F)cc1 [Compound 25, (1S,2S)-2-(4-Fluoro-phenyl)-cyclopropanecarboxylic acid {(R)-1-[4-(2-fluoro-ethoxy)-phenyl]-2-hydroxy-ethyl}-amide]
